Reference: PubChem BioAssay AID1918957 (Molecular Pharmacology Branch, DTP, NCI, 2023)
Where “and” joins values, the source holds several entries; their conditions need not be identical. Equal entries are not always repeated.

Tested on: NCI-H1876 complex spheroid viability
Experiment: Anticancer human tumor NCI-H1876 cell line growth inhibition [LSD1];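 also: spheroids exposed to compounds for one week before readout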;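 as to viability, T/C: 100% = DMSO vehicle-treated spheroids so lower means fewer viable cells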
Settings: for viability, T/C: stronger effect = lower value; active = viability on the fitted dose curve at most 10% of control; inactive = the rest
From the text: Multicellular complex tumor spheroid response to LSD1 Inhibitor Iadademstat in combination with a variety of drugs and investigational agents in selected tumor cell lines
The current study was undertaken to assess response to LSD1 inhibitors in combination with standard-of-care drugs and investigational agents in solid tumor complex spheroid models as well as in the K-562 leukemia. Complex spheroids include a stromal component modeled by human endothelial cells (HUVEC) and fibroblasts modeled by human mesenchymal stem cells (MSCs). The concentration ranges selected for each drug and investigational agent were based upon clinically achievable concentrations if the clinical Cmax of the agent was known.
Compounds. The drugs and investigational agents used in this study are listed on Table 1. All of the agents used, including staurosporine (NSC755774) and gemcitabine (NSC613327), were obtained from the Developmental Therapeutics Program, NCI. FDA-approved anticancer drugs are available from the NCI at http://dtp.nci.nih.gov/branches/dscb/oncology_drugset_explanation.html. Drugs and investigational agents were >95% pure by proton nuclear magnetic resonance (NMR) and liquid chromatography/mass spectrometry (LC/MS). Stock solutions were prepared at 400x in DMSO, stored at -70 degrees C, and diluted in fresh medium prior to their use. The final concentration of DMSO in cell culture wells never exceeded 0.25% (v/v). The FDA-approved anticancer drug set is available from the Developmental Therapeutics Program at https://dtp.cancer.gov/organization/dscb/obtaining/available_plates.htm. All drugs and investigational agents were tested over a range starting from a high concentration at or near the clinical Cmax and decreasing in half-log increments. If the clinical Cmax for an agent had not been determined, the highest concentration tested was 10 microM.
Cell Lines. The patient-derived cancer cell (PDC) lines: 292921-168-R-J2-PDC, K24384-001-R-PDC, and 521955-158-R2-J5-PDC pancreatic carcinomas, 556581-035-R-J1 ovarian carcinoma, 324938-238-R-J1-PDC, 855422-203-R-J1-PDC and 883617-216-R-J1-PDC urothelial bladder carcinomas, 743489-274-T-PDC renal cell carcinoma, 138582-R-J1 Merkel cell tumor, K60290-347-R-J1 and K57222-313-R-J1-PDC glioblastomas, 653999-131-R-J2-PDC, LG0703-F948-PDC, and 349418-098-R-PDC non-small cell lung carcinomas, 885512-296-R-J2-PDC, 171881-019-R-J1-PDC breast carcinomas and 186277-243-T-J2-PDC and 233499-124-R-J2-PDC colon carcinomas were obtained from the NCI Patient-Derived Models Repository (PDMR, https://pdmr.cancer.gov). The established cell lines NCI/ADR-RES (RRID:CVCL_14520 and OVCAR-5 (RRID:CVCL_1628) ovarian carcinomas, 786-O (RRID:CVCL_1051) and A498 (RRID:CVCL_A498) renal cell carcinoma, NCI-H211 (ATCC, cat. CRL-5824; RRID:CVCL_1529), NCI-H196 (ATCC, cat. CRL-5823, RRID:CVCL_1509), SW 1271 (ATCC, cat. CRL-2177, RRID:CVCL_1716) and NCI-H1876 (ATCC, cat. CRL-5902, RRID:CVCL_1503) small cell lung carcinomas, MDA-MB-231 (RRID:CVCL_0062) and MDA-MB-468 (RRID:CVCL_0419)breast carcinomas (10-12). Pooled donor human umbilical vein endothelial cells (HUVEC, Lonza, cat. CC-2519) and human mesenchymal stem cells (hMSC, Lonza, cat. PT-2501) were purchased from Lonza (Walkersville, MD).
Cell Culture. All cells were maintained in an incubator at 37 degrees C and 5% CO2 with 95% humidity. The PDC lines were cultured according to standard operating procedures established by the NCI PDMR (https://pdmr.cancer.gov). Briefly all PDCs were thawed and cultured in Matrigel-coated flasks prepared with a working solution of 1X Ham's F-12 nutrient mix, without supplementation (Invitrogen, Waltham, MA, cat. 11765054), 100 U/mL penicillin-streptomycin (Invitrogen, cat. 15140122), and 2.5% Matrigel (Corning Inc., Corning, NY, cat. 354248) for the first three passages. […]

[1] = curve of first compound, second compound 0.1 µM
[2] = curve of first compound, second compound 0.316 µM
[3] = curve of first compound, second compound 1 µM
[4] = curve of first compound, second compound 3.16 µM
[5] = curve of first compound, second compound 10 µM
[6] = second compound 0.1 µM, first compound 0.00949 µM
[7] = second compound 0.1 µM, first compound 0.03 µM
[8] = second compound 0.1 µM, first compound 0.0949 µM
[9] = second compound 0.1 µM, first compound 0.3 µM
[10] = second compound 0.1 µM, first compound 0.949 µM
[11] = second compound 0.1 µM, first compound 3 µM
[12] = second compound 0.316 µM, first compound 0.00949 µM
[13] = second compound 0.316 µM, first compound 0.03 µM
[14] = second compound 0.316 µM, first compound 0.0949 µM
[15] = second compound 0.316 µM, first compound 0.3 µM
[16] = second compound 0.316 µM, first compound 0.949 µM
[17] = second compound 0.316 µM, first compound 3 µM
[18] = second compound 1 µM, first compound 0.00949 µM
[19] = second compound 1 µM, first compound 0.03 µM
[20] = second compound 1 µM, first compound 0.0949 µM
[21] = second compound 1 µM, first compound 0.3 µM
[22] = second compound 1 µM, first compound 0.949 µM
[23] = second compound 1 µM, first compound 3 µM
[24] = second compound 3.16 µM, first compound 0.00949 µM
[25] = second compound 3.16 µM, first compound 0.03 µM
[26] = second compound 3.16 µM, first compound 0.0949 µM
[27] = second compound 3.16 µM, first compound 0.3 µM
[28] = second compound 3.16 µM, first compound 0.949 µM
[29] = second compound 3.16 µM, first compound 3 µM
[30] = second compound 10 µM, first compound 0.00949 µM
[31] = second compound 10 µM, first compound 0.03 µM
[32] = second compound 10 µM, first compound 0.0949 µM
[33] = second compound 10 µM, first compound 0.3 µM
[34] = second compound 10 µM, first compound 0.949 µM
[35] = second compound 10 µM, first compound 3 µM

NS(=O)(=O)OCC1CC(n2ccc3c(NC4CCc5ccccc54)ncnc32)CC1O (centres undefined) + NC1CC1c1ccc(-c2cccc(O)c2)cc1
0.0943 µM: IC50 [2]
0.187 µM: IC50 [5]
inactive: viability, T/C [6] 93.3% | viability, T/C [7] 58% | viability, T/C [8] 52% | viability, T/C [9] 45.5% | viability, T/C [10] 44.5% | viability, T/C [11] 37.4% | viability, T/C [12] 82.4% | viability, T/C [13] 59.1% | viability, T/C [14] 50.6% | viability, T/C [15] 45.8% | viability, T/C [16] 42.8% | viability, T/C [17] 38.4% | viability, T/C [18] 86.6% | viability, T/C [19] 56.8% | viability, T/C [20] 49.4% | viability, T/C [21] 47.2% | viability, T/C [22] 41.3% | viability, T/C [23] 38.3% | viability, T/C [24] 91.1% | viability, T/C [25] 63% | viability, T/C [26] 53.6% | viability, T/C [27] 46.7% | viability, T/C [28] 39.9% | viability, T/C [29] 36.2% | viability, T/C [30] 87.2% | viability, T/C [31] 73.6% | viability, T/C [32] 55.5% | viability, T/C [33] 45% | viability, T/C [34] 38.6% | viability, T/C [35] 30.9%
0.0846 µM: IC50 [1]
0.0782 µM: IC50 [3]
0.13 µM: IC50 [4]

CC[C@@]1(O)C(=O)OCc2c1cc1n(c2=O)Cc2cc3c(CN(C)C)c(O)ccc3nc2-1 + NC1CC1c1ccc(-c2cccc(O)c2)cc1
0.00181 µM: IC50 [3]
0.0018 µM: IC50 [2]
0.00169 µM: IC50 [5]
0.00182 µM: IC50 [1]
0.00173 µM: IC50 [4]
active: viability, T/C (second compound 0.1 µM, first compound 0.01 µM) 10.4% | viability, T/C (second compound 0.1 µM, first compound 0.0316 µM) 6.25% | viability, T/C (second compound 0.1 µM, first compound 0.1 µM) 4.62% | viability, T/C (second compound 0.316 µM, first compound 0.01 µM) 9.15% | viability, T/C (second compound 0.316 µM, first compound 0.0316 µM) 6.84% | viability, T/C (second compound 0.316 µM, first compound 0.1 µM) 4.48% | viability, T/C (second compound 1 µM, first compound 0.01 µM) 9.89% | viability, T/C (second compound 1 µM, first compound 0.0316 µM) 6.39% | viability, T/C (second compound 1 µM, first compound 0.1 µM) 4.42% | viability, T/C (second compound 3.16 µM, first compound 0.01 µM) 10.3% | viability, T/C (second compound 3.16 µM, first compound 0.0316 µM) 7.55% | viability, T/C (second compound 3.16 µM, first compound 0.1 µM) 4.94% | viability, T/C (second compound 10 µM, first compound 0.0316 µM) 8.77% | viability, T/C (second compound 10 µM, first compound 0.1 µM) 6.56%
inactive: viability, T/C (second compound 0.1 µM, first compound 0.000316 µM) 102% | viability, T/C (second compound 0.1 µM, first compound 0.001 µM) 87.4% | viability, T/C (second compound 0.1 µM, first compound 0.00316 µM) 15.2% | viability, T/C (second compound 0.316 µM, first compound 0.000316 µM) 102% | viability, T/C (second compound 0.316 µM, first compound 0.001 µM) 86.2% | viability, T/C (second compound 0.316 µM, first compound 0.00316 µM) 15.2% | viability, T/C (second compound 1 µM, first compound 0.000316 µM) 104% | viability, T/C (second compound 1 µM, first compound 0.001 µM) 87% | viability, T/C (second compound 1 µM, first compound 0.00316 µM) 15.2% | viability, T/C (second compound 3.16 µM, first compound 0.000316 µM) 100% | viability, T/C (second compound 3.16 µM, first compound 0.001 µM) 81.5% | viability, T/C (second compound 3.16 µM, first compound 0.00316 µM) 15.6% | viability, T/C (second compound 10 µM, first compound 0.000316 µM) 97.8% | viability, T/C (second compound 10 µM, first compound 0.001 µM) 76.8% | viability, T/C (second compound 10 µM, first compound 0.00316 µM) 17.8% | viability, T/C (second compound 10 µM, first compound 0.01 µM) 15.2%

Nc1ccccc1NC(=O)c1ccc(CNC(=O)OCc2cccnc2)cc1
active: viability, T/C (compound 3 µM) 8.9% and 0.64%
inactive: viability, T/C (compound 0.00949 µM) 103% and 93.5% | viability, T/C (compound 0.03 µM) 97.7% and 77.7% | viability, T/C (compound 0.0949 µM) 79.1% and 44.3% | viability, T/C (compound 0.3 µM) 24.9% and 14%
10.3% and 4.22%: viability, T/C (compound 0.949 µM)
0.176 µM and 0.0773 µM: IC50 (curve of compound)

COc1cc(C2c3cc4c(cc3C(OC3OC5COC(C)OC5C(O)C3O)C3COC(=O)C23)OCO4)cc(OC)c1O (centres undefined)
26.4% and 8.9%: viability, T/C (compound 0.949 µM)
0.054 µM and 0.0378 µM: IC50 (curve of compound)
inactive: viability, T/C (compound 0.00949 µM) 85.4% and 93.8% | viability, T/C (compound 0.03 µM) 69.1% and 57.3% | viability, T/C (compound 0.0949 µM) 30.5% and 20.9% | viability, T/C (compound 0.3 µM) 32.1% and 11.1%
11.7% and 9%: viability, T/C (compound 3 µM)

Nc1ccccc1NC(=O)c1ccc(CNC(=O)OCc2cccnc2)cc1 + NC1CC1c1ccc(-c2cccc(O)c2)cc1
active: viability, T/C [9] 9.94% | viability, T/C [10] 2.94% | viability, T/C [11] 0.49% | viability, T/C [16] 3.03% | viability, T/C [17] 0.41% | viability, T/C [21] 8.61% | viability, T/C [22] 2.73% | viability, T/C [23] 0.38% | viability, T/C [27] 8.61% | viability, T/C [28] 2.69% | viability, T/C [29] 0.45% | viability, T/C [34] 2.64% | viability, T/C [35] 0.52%
0.0615 µM: IC50 [3]
0.0652 µM: IC50 [4]
0.0668 µM: IC50 [2]
inactive: viability, T/C [6] 91.1% | viability, T/C [7] 88.8% | viability, T/C [8] 43.1% | viability, T/C [12] 83.6% | viability, T/C [13] 71.9% | viability, T/C [14] 40.9% | viability, T/C [15] 9.16% | viability, T/C [18] 85.1% | viability, T/C [19] 75.5% | viability, T/C [20] 34.4% | viability, T/C [24] 84.6% | viability, T/C [25] 76% | viability, T/C [26] 37.3% | viability, T/C [30] 78.6% | viability, T/C [31] 70.5% | viability, T/C [32] 41.5% | viability, T/C [33] 13.3%
0.0682 µM: IC50 [5]
0.081 µM: IC50 [1]
